{"source": "paper PMC7591795", "about": "“Humulone Modulation of GABAA Receptors and Its Role in Hops Sleep-Promoting Activity” (Frontiers in Neuroscience, 2020)", "key": {"[1]": {"tested_on": "native GABAA receptors in rat forebrain membranes", "experiment": "[3H]EBOB binding assay, rat forebrain membranes", "details": "each compound 1 μM, GABA 3 μM, n = 3", "procedure": "(§1) The protein concentrations of brain membranes were determined with the Bio-Rad Coomassie blue dye-based protein assay kit (Hercules, CA, United States) as per the manufacturer’s protocol. Transfected HEK293 cells were harvested 48 h after transfection using a detaching buffer (10 mM Tris-HCl, 0.15 M NaCl, 2 mM EDTA) and centrifuged at 20,000 g for 10 min at +4 °C. The resulting pellets were suspended in the assay buffer for binding assays.\n(§2) In humulone concentration series with recombinant α6β3, α6β3γ2S, and α6β3δ receptors, HEK293 cell membranes were incubated in the same above conditions for 120 min with [^3H]EBOB (1 nM) and different concentrations of humulone (30 nM–30 μM) in the presence or absence of ethanol (30 mM). […] Picrotoxin (100 μM) was used to determine the non-specific binding in all assays.\n(§3) Membrane samples were filtered through Whatman GF/B glass fiber filters (Whatman International Ltd., Maidstone, United Kingdom) using a Brandel Cell Harvester (model M-24, Gaithersburg, MD, United States). The filters were rinsed three times with 5 mL of ice-cold 10 mM Tris-HCl, pH 7.4 buffer. Air-dried filters were immersed in 3 mL of Hidex AquaLight Beta scintillation liquid and radioactivity was determined in Hidex 600 SL liquid scintillation counter (Hidex, Turku, Finland)."}, "[2]": {"tested_on": "native GABAA receptors in rat forebrain membranes", "set-up": "method as in Benkherouf et al., 2020", "details": "ref Benkherouf et al., 2020; cited from earlier work"}, "[3]": {"tested_on": "native αβγ2 GABAA receptors, classical benzodiazepine binding site", "set-up": "method as in Benkherouf et al., 2019, 2020", "details": "ref Benkherouf et al., 2019, 2020; cited from earlier work"}, "GABAA receptors": {"tested_on": "GABAA receptors", "set-up": "method as in Benkherouf et al., 2020", "details": "ref Benkherouf et al., 2020; cited from earlier work"}, "[4]": {"tested_on": "native GABAA receptors in rat cerebellar membranes", "format": "binding", "procedure": "as §1, §2, §3"}, "[5]": {"target": "T1, recombinant α6β3δ GABAA receptors (Rattus norvegicus, UniProt P18506+P30191+P63079)", "T1 construct": "expressed in transfected cells; host or cells: HEK293 cells, transient CaPO4 transfection, pRK5 plasmids; cell membranes used", "T1 sequence (P30191 20-453)": "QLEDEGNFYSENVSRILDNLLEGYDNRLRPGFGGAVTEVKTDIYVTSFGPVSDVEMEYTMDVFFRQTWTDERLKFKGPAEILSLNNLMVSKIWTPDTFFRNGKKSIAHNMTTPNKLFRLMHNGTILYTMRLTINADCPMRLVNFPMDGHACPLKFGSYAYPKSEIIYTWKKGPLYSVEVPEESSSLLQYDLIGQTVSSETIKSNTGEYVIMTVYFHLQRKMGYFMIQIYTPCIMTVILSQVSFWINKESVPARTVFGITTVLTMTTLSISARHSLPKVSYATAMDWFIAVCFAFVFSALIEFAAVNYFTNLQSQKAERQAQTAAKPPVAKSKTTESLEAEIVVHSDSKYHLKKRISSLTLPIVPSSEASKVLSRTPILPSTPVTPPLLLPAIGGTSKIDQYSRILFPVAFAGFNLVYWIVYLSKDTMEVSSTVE", "T1 sequence (P63079 26-473)": "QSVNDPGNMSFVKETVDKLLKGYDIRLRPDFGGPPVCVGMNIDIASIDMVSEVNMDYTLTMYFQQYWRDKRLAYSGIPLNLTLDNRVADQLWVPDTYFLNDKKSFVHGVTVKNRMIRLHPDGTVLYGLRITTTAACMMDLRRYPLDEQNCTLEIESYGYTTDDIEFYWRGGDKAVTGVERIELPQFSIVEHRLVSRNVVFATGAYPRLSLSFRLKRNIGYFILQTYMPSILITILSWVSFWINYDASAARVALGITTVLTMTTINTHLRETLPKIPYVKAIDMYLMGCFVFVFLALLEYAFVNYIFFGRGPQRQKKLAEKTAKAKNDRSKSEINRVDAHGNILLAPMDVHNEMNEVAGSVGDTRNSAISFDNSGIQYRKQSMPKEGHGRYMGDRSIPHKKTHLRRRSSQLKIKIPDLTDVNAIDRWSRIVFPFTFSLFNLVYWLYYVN", "T1 sequence (P18506 25-449)": "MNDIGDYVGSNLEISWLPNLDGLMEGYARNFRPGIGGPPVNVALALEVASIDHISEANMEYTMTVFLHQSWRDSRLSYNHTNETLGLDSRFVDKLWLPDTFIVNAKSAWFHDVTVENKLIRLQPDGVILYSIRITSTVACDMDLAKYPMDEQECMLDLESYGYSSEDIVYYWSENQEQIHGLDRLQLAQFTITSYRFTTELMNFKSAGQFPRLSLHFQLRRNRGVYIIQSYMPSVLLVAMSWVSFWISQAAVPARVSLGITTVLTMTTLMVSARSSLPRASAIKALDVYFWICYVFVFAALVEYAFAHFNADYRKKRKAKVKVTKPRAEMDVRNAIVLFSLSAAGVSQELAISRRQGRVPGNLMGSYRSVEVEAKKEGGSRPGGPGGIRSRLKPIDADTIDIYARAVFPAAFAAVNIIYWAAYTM", "experiment": "[3H]EBOB binding assay, recombinant α6β3δ receptors in HEK293 cell membranes", "details": "GABA 3 μM, α6β3δ", "procedure": "(§4) The cells were divided and plated on 150 mm culture dishes for binding assays and 12 mm coverslips in 24-well cell culture plates for electrophysiology 24 h before transfection.\n(§5) The cells were transiently transfected with rat cDNAs encoding GABAA receptor subunits (α1, L08490; α6, L08495; β3, X15468; γ2S, L08497; δ, L08496) in pRK5 plasmids under the control of CMV promoter ([Uusi-Oukari et al., 2000]). The plasmids were used in 1:1 and 1:1:1 ratio for transfections containing α1β3γ2S, α6β3, α6β3γ2S, and α6β3δ receptor subtypes. […] (Supplementary Figure S1). For electrophysiology, K4® transfection system (Biontex, München, Germany) was used according to the manufacturer’s protocol to increase expression efficiency and cell viability. […] The medium was changed 24 h after transfection and all experiments were performed 48 h after transfection.\nas §1, §2, §3"}, "[6]": {"target": "T2, recombinant α6β3γ2 GABAA receptors (Rattus norvegicus, UniProt P18508+P30191+P63079)", "T2 construct": "expressed in transfected cells; host or cells: HEK293 cells, transient CaPO4 transfection, pRK5 plasmids; cell membranes used", "T2 sequence (P30191 20-453)": "as the sequence (P30191 20-453) above", "T2 sequence (P63079 26-473)": "as the sequence (P63079 26-473) above", "T2 sequence (P18508 39-466)": "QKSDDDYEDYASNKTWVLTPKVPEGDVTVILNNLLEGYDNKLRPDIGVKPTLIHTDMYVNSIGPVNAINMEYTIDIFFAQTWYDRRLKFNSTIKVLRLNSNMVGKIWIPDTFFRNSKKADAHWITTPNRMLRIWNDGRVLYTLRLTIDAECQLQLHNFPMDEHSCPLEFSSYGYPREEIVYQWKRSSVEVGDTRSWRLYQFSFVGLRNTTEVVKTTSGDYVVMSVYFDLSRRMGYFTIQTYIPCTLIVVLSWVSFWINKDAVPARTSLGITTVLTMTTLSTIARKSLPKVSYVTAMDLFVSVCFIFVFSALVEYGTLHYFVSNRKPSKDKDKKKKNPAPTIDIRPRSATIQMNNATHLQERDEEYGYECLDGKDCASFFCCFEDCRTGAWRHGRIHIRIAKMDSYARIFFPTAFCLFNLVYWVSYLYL", "experiment": "[3H]EBOB binding assay, recombinant α6β3γ2 receptors in HEK293 cell membranes", "details": "GABA 3 μM", "procedure": "as §4, §5, §1, §2, §3"}, "[7]": {"target": "T3, recombinant α6β3 GABAA receptors (Rattus norvegicus, UniProt P30191+P63079)", "T3 construct": "expressed in transfected cells; host or cells: HEK293 cells, transient CaPO4 transfection, pRK5 plasmids (1:1); cell membranes used", "T3 sequence (P30191 20-453)": "as the sequence (P30191 20-453) above", "T3 sequence (P63079 26-473)": "as the sequence (P63079 26-473) above", "experiment": "[3H]EBOB binding assay, recombinant α6β3 receptors in HEK293 cell membranes", "details": "GABA 3 μM", "procedure": "as §4, §5, §1, §2, §3"}, "[8]": {"details": "ethanol 30 mM co-incubated with humulone 1 μM"}}, "note": "Entries after “also recorded” stand apart in the source; their conditions may differ."}
{"smiles": "COc1cc(O)c(CC=C(C)C)c2c1C(=O)CC(c1ccc(O)cc1)O2", "note": "(stereo not shown) [IXN, isoxanthohumol]", "values": [{"measurement": "[3H]EBOB displacement normalized to the maximum radioligand binding in the presence of 3 μM GABA alone", "setting": "[1]", "value": "14.4 ± 0.9", "unit": "%"}]}
{"smiles": "CC(C)=CCc1c(O)cc2c(c1O)C(=O)C[C@@H](c1ccc(O)cc1)O2", "note": "[6PN, 6-prenylnaringenin]", "values": [{"measurement": "[3H]EBOB displacement normalized to the maximum radioligand binding in the presence of 3 μM GABA alone", "setting": "[1]", "value": "14.2 ± 1.4", "unit": "%"}, {"measurement": "sensitivity of modulatory effect on [3H]EBOB binding to flumazenil antagonism", "setting": "[2]", "value": "insensitivity"}, {"measurement": "displacement of [3H]Ro 15-4513 binding (benzodiazepine binding site)", "setting": "[3]", "value": "remarkably more efficient"}]}
{"smiles": "CCC(C)C(=O)C1=C(O)C(CC=C(C)C)=C(O)C(O)(CC=C(C)C)C1=O", "note": "(stereo not shown) [adhumulone]", "values": [{"measurement": "modulatory effects on GABAA receptors", "setting": "GABAA receptors", "value": "weak modulatory effects"}]}
{"smiles": "CCO", "note": "[ethanol]", "values": [{"measurement": "effect of ethanol solely on [3H]EBOB binding", "setting": "[4]", "value": "neither displaces nor modulates"}, {"measurement": "ethanol enhancement of humulone-mediated [3H]EBOB displacement", "setting": "[5]; [8]", "value": "did not significantly enhance"}, {"measurement": "effect of ethanol alone on GABA-induced [3H]EBOB displacement", "setting": "[5]; ethanol 30 mM", "value": "no effect; also recorded: unaffected"}, {"measurement": "ethanol enhancement of humulone-mediated [3H]EBOB displacement", "setting": "[6]; [8]", "value": "did not alter; also recorded: did not enhance"}, {"measurement": "effect of ethanol alone on GABA-induced [3H]EBOB binding", "setting": "[6]; ethanol 30 mM", "value": "unaffected"}, {"measurement": "ethanol enhancement of humulone-mediated [3H]EBOB displacement", "setting": "[7]; [8]", "value": "did not alter; also recorded: did not enhance"}, {"measurement": "effect of ethanol alone on GABA-induced [3H]EBOB binding", "setting": "[7]; ethanol 30 mM", "value": "unaffected"}]}
{"smiles": "CC(C)=CCC1=C(O)C(O)(CC=C(C)C)C(=O)C(C(=O)C(C)C)=C1O", "note": "(stereo not shown) [cohumulone]", "values": [{"measurement": "modulatory effects on GABAA receptors", "setting": "GABAA receptors", "value": "weak modulatory effects"}]}
